According to article PMC8843131, “Inhibition studies of bacterial α-carbonic anhydrases with phenols” (Journal of Enzyme Inhibition and Medicinal Chemistry, 2022):
Like-named read-outs stand apart in the source and are kept apart here.

How the values were obtained:
[1] = biological target: T1, VchCAα (Vibrio cholerae, UniProt Q9KMP6); assay: stopped-flow CO2 hydrase assay; assay type: biochemical; conditions: read-out: KI (μM)^a / VchCAα; CO2 substrate 1.7-17 mM, 10 mM HEPES pH 7.4, 10 mM NaClO4, 15 min preincubation
T1 construct: gene VC_A0274

[2] = biological target: T2, NgCAα (Neisseria gonorrhoeae, UniProt Q50940); assay: stopped-flow CO2 hydrase assay; assay type: biochemical
T2 construct: gene cah; recombinant, obtained in-house as described earlier
T2 sequence (Q50940 27-252): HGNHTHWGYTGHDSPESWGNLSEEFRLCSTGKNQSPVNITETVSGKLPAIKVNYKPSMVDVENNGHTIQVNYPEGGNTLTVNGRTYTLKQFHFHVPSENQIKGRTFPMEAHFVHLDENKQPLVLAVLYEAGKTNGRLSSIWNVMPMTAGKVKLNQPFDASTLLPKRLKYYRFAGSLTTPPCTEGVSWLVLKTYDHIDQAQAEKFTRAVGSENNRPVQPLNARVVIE

T1 sequence (Q9KMP6 21-239 limits assumed): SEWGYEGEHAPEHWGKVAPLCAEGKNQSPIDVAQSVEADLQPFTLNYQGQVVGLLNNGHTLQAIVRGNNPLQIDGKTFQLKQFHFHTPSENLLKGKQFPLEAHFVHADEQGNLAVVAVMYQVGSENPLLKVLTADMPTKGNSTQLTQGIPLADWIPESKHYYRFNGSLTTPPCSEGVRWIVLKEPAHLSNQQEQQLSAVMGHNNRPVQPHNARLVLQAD

O=C(O)c1ccccc1O [compound 10, salicylic acid]
Ki [1]: 39.1 µM | Ki [2]: 43.8 µM

Nc1cccc(O)c1 [compound 6, 3-aminophenol]
Ki [1]: 3.9 µM | Ki [2]: 1.7 µM

Nc1cc(O)ccc1Cl [compound 13, 3-amino-4-chlorophenol]
Ki [1]: 0.7 µM | Ki [2]: 0.8 µM

Nc1ccc(O)c(Cl)c1 [compound 14, 14]
Ki [1]: 81.6 µM | Ki [2]: 71.5 µM

Oc1ccccc1O [compound 2, 2]
Ki [1]: 20.3 µM | Ki [2]: 5.3 µM

OCc1ccc(O)cc1 [compound 12, 4-hydroxy-benzylalcohol]
Ki [1]: 1.2 µM | Ki [2]: 0.6 µM

O=C(O)/C=C/c1ccc(O)cc1 [compound 21, 21]
Ki [1]: 40.5 µM | Ki [2]: 10 µM

CC(=O)Nc1ccc(O)cc1 [compound 8, paracetamol]
Ki [1]: 7 µM | Ki [2]: 1.5 µM

Oc1ccc(F)cc1F [compound 15, 15]
Ki [1]: 36.6 µM | Ki [2]: 35.9 µM

Oc1cc(F)cc(F)c1 [compound 16, 3,5-difluorophenol]
Ki [1]: 4.9 µM | Ki [2]: 3.7 µM

O=C(O)c1ccc(O)cc1 [compound 11, 4-hydroxy-benzoic acid]
Ki [1]: 3.5 µM | Ki [2]: 8.7 µM

Oc1cccc(O)c1 [compound 3, 3]
Ki [1]: 8.6 µM | Ki [2]: 2.2 µM

Oc1ccc(O)cc1 [compound 4, 4]
Ki [1]: 8.4 µM | Ki [2]: 4.7 µM

Nc1ccc(O)cc1 [compound 7, 7]
Ki [1]: 10.6 µM | Ki [2]: 6 µM

Oc1ccc(O)c(O)c1 [compound 5, 5]
Ki [1]: 9.4 µM | Ki [2]: 3.9 µM

O=C(O)c1c(O)cccc1O [compound 19, 19]
Ki [1]: 49.6 µM | Ki [2]: 33.1 µM

O=C(O)/C=C/c1ccc(O)c(O)c1 [compound 22, caffeic acid]
Ki [1]: 78.1 µM | Ki [2]: 76 µM

O=C(O)c1cc(O)ccc1O [compound 20, 20]
Ki [1]: 7.3 µM | Ki [2]: 16.3 µM

O=C(O)c1ccc(O)c(O)c1 [compound 18, 3,4-dihydroxybenzoic acid]
Ki [1]: 13.8 µM | Ki [2]: 9.3 µM

N#Cc1ccc(O)cc1 [compound 9, 4-cyanophenol]
Ki [1]: 17.2 µM | Ki ([2]; CO2 substrate 1.7-17 mM, 10 mM HEPES pH 7.4, 10 mM NaClO4, 15 min preincubation): 24.2 µM

Oc1ccccc1 [compound 1, phenol]
Ki [1]: 0.8 µM | Ki [2]: 0.9 µM
